Experimental data as given in patent US9044454B2, “Regulation of microvasculature occlusion” (NORTHWESTERN UNIVERSITY, priority 2010, dated 2015).

Experiments:
[1] = tested on: U87 cancer cells (glioma model) tumor in mice; test: Inhibition of recanalization in U87 tumors embolized with microspheres; type: in vivo
Protocol: Mice cerebral vasculatures were embolized by intravascular infusion with either (15 micron microspheres+2 mg/ml ML-7 solution) or (15 micron microspheres+vehicle) followed by daily intra-peritoneal injection of ML-7. 14 days later brain tissues were collected and vessels were labeled with fluorescein lectin. The proportion of recanalized occlusions was assessed from 50 randomly selected microsphere in each group.
U87 cancer cells, which model glioma, were implanted in mice to create a tumor. Tumors were embolized by intravascular infusion with either (15 micron microspheres+2 mg/ml ML-7 solution) or (15 micron microspheres+vehicle). 7 days later brain tissues were collected and vessels were labeled with anti CD 31 antibodies. Cell death marker caspase 3 was labeled with anti caspase 3 antibody. Without ML-7 to inhibit extravasation of emboli, individual emboli cause a moderate amount of caspase upregulation and tumor blood vessels are recanalized re-establishing blood flow to the tumor. […] The proportion of recanalized occlusions was assessed for each group.

[2] = tested on: mice embolized with fibrin clots or microspheres (cerebral microvasculature); test: Measurement of embolus extravasation in MMP 2/9 inhibitor injected embolized mice; type: in vivo, mouse
Excerpt: To induce cerebral embolization fluorescently conjugated fibrin clots, cholesterol emboli (8-20 μm in diameter) or polystyrene microspheres (10 or 15 μm in diameter) were infused through the mouse internal carotid artery. Emboli were imaged in fixed tissues by confocal microscopy after vessel labeling by I.V. injection of FITC-lycopersicom esculentum, thioflavin-S or immunolabeled with anti-PECAM-1, collagen IV or ZO-1 antibodies. Emboli were also imaged overtime in vivo by transcranial two-photon microscopy (TPM) in mice expressing GFP in endothelial cells (Tie2-GFP) or wild type mice injected with thioflavin-S I.V. Blood flow velocity was recorded by line scan TPM imaging to verify microvascular occlusion and reestablishment of flow. […] Quantification of extravasation efficiency was performed from confocal images in fixed brain slices and in a subset of experiments from in vivo TPM time-lapse images. Matrix metalloprotease 2/9 (MMP2/9) activity was measured in areas adjacent to emboli using fluorescent in situ zymography methods. […] Perivascular hypoxia was detected by administration and immunohistochemical detection of hypoxyprobe. Dendritic spine density was quantified in confocal image stacks of fixed brain slices from mice expressing YFP in a subset of pyramidal neurons. […]

[3] = 15 micron microspheres + 2 mg/ml ML-7 solution vs vehicle, FIG. 3

SMILES | cell death marker Caspase-3 within the cancer ([1]; 15 micron microspheres + 2 mg/ml ML-7 solution vs microspheres + vehicle, intravascular infusion, 7 days) | extravasated emboli [1, 3] | proportion of recanalized occlusions (occluded vessels re-canalized) [1, 3] | extravasation of clot fragments ([2]; fibrin clot-embolized mice, SB-3CT 20 mg/kg/day i.p. vs saline, 4 days) | microsphere extravasation ([2]; microsphere-embolized mice, SB-3CT i.p. daily 2, 10, 20 mg/kg/day or acutely 40 mg/kg vs saline, 14 days post-embolization)
O=S(=O)(c1cccc2c(I)cccc12)N1CCCNCC1 [ML-7] | broad upregulation | less extravasated emboli | fewer of occluded vessels had been re-canalized | – | –
O=S(=O)(CC1CS1)c1ccc(Oc2ccccc2)cc1 (centres unmarked) [SB-3CT] | – | – | – | marked reduction | substantial reduction
